≈ marks a conversion by molar mass, not a printed value.
Experiments:
Assay in all cases: ≥ marks a high value that may be exact or a test limit, other limits are often not marked, values filed in µg/mL are converted to µM
[1] = system: Candida tropicalis IOC 4560
[2] = system: Serratia marcescens ATCC 4112
Micrococcus luteus A270 = system: Micrococcus luteus A270
[3] = system: Bacillus subtilis ATCC 6633
[4] = system: Enterobacter cloacae beta-12
Escherichia coli SBS 363 = system: Escherichia coli SBS 363
[5] = system: Bacillus megaterium ATCC 10778
[6] = system: Staphylococcus aureus ATCC 29213
[7] = system: Pseudomonas aeruginosa ATCC 27853
Candida albicans MDM8 = system: Candida albicans MDM8
[8] = system: Klebsiella pneumoniae ATCC 700603
[9] = system: Cryptococcus neoformans ATCC 208821
[10] = system: Staphylococcus aureus SH1000
[11] = system: Staphylococcus aureus ATCC 43300
[12] = system: Acinetobacter baumannii ATCC 19606
[13] = system: Escherichia coli ATCC 25922
[14] = system: Candida albicans ATCC 90028
Escherichia coli W3110 = system: Escherichia coli W3110
[15] = system: Klebsiella pneumoniae ATCC BAA-1705
[16] = system: Pseudomonas aeruginosa PA214
[17] = system: Pseudomonas aeruginosa PA330
Escherichia coli K-12 = system: Escherichia coli K-12
[18] = system: Pseudomonas aeruginosa PAO1
[19] = system: Escherichia coli ATCC 2592
[20] = system: Staphylococcus aureus ATCC 6538
[21] = system: Candida albicans ATCC 36232
Staphylococcus aureus = system: Staphylococcus aureus
[22] = system: Proteus vulgaris ATCC 6380
[23] = system: Micrococcus luteus ATCC 9341
[24] = system: Pseudomonas aeruginosa ATCC 9027
[25] = system: Escherichia coli DH5alpha

Question: For `CC(C)C[C@H](NC(=O)[C@H](C)NC(=O)CNC(=O)[C@H](CC(C)C)NC(=O)[C@@H](N)Cc1ccccc1)C(=O)N[C@@H](Cc1c[nH]c2ccccc12)C(=O)N[C@@H](CC(N)=O)C(=O)N[C@H](C(=O)N[C@@H](C)C(=O)N[C@@H](CCCCN)C(=O)N[C@@H](CCCN=C(N)N)C(=O)N[C@H](C(=O)N[C@@H](Cc1ccccc1)C(N)=O)C(C)C)C(C)C` [FLGALWNVAKRVF], which MIC [1] is on record?
Answer: 1.6 µM (≈ 2.43 µg/mL)

Question: What about the MIC [2] of the same compound?
Answer: 0.8 µM (≈ 1.22 µg/mL)

Question: And the MIC (Micrococcus luteus A270)?
Answer: 1.6 µM (≈ 2.43 µg/mL)

Question: And the MIC [3]?
Answer: 1.6 µM (≈ 2.43 µg/mL)

Question: And the MIC [4]?
Answer: 6.3 µM (≈ 9.58 µg/mL)

Question: And the MIC (Escherichia coli SBS 363)?
Answer: 1.6 µM (≈ 2.43 µg/mL)

Question: What about the MIC [5] of the same compound?
Answer: 0.8 µM (≈ 1.22 µg/mL)

Question: What about the MIC [6] of the same compound?
Answer: 3.1 µM (≈ 4.71 µg/mL)

Question: And the MIC [7]?
Answer: 12.5 µM (≈ 19 µg/mL)

Question: And the MIC (Candida albicans MDM8)?
Answer: 3.1 µM (≈ 4.71 µg/mL)

Question: For `CC(C)C[C@H](NC(=O)[C@H](C)NC(=O)CNC(=O)[C@H](CC(C)C)NC(=O)[C@@H](N)Cc1ccccc1)C(=O)N[C@@H](Cc1c[nH]c2ccccc12)C(=O)N[C@@H](CC(N)=O)C(=O)N[C@H](C(=O)N[C@@H](CC(C)C)C(=O)N[C@@H](CCCCN)C(=O)N[C@@H](CO)C(=O)N[C@H](C(=O)N[C@@H](Cc1ccccc1)C(N)=O)C(C)C)C(C)C` [FLGALWNVLKSVF], which MIC [1] is on record?
Answer: 3.1 µM (≈ 4.63 µg/mL)

Question: What about the MIC [2] of the same compound?
Answer: 0.4 µM (≈ 0.597 µg/mL)

Question: What about the MIC (Micrococcus luteus A270) of the same compound?
Answer: 0.4 µM (≈ 0.597 µg/mL)

Question: What about the MIC [3] of the same compound?
Answer: 0.8 µM (≈ 1.19 µg/mL)

Question: And the MIC [4]?
Answer: ≥ 50 µM

Question: And the MIC (Escherichia coli SBS 363)?
Answer: 0.8 µM (≈ 1.19 µg/mL)

Question: What about the MIC [5] of the same compound?
Answer: 3.1 µM (≈ 4.63 µg/mL)

Question: What about the MIC [6] of the same compound?
Answer: 0.8 µM (≈ 1.19 µg/mL)

Question: What about the MIC [7] of the same compound?
Answer: > 50 µM

Question: What about the MIC (Candida albicans MDM8) of the same compound?
Answer: 3.1 µM (≈ 4.63 µg/mL)

Question: What does the source list for `CC(C)C[C@H](NC(=O)CN)C(=O)N[C@@H](Cc1ccccc1)C(=O)N[C@@H](CCCCN)C(=O)N[C@@H](CC(C)C)C(=O)N[C@@H](CC(C)C)C(=O)N[C@@H](CCCCN)C(=O)N[C@@H](CCCCN)C(=O)N[C@@H](CC(C)C)C(=O)N[C@@H](CC(C)C)C(=O)N[C@@H](CCCCN)C(=O)N[C@@H](CC(C)C)C(=O)N[C@@H](CC(C)C)C(=O)N[C@@H](CCCCN)C(N)=O` [GLFKLLKKLLKLLK]?
Answer: MIC [8]: > 20 µM; MIC [9]: 20 µM (≈ 33.1 µg/mL); MIC [10]: ≥ 33 µM; MIC [11]: > 20 µM; MIC [12]: > 20 µM; MIC [13]: > 20 µM; MIC [7]: > 20 µM; MIC [14]: 20 µM (≈ 33.1 µg/mL)

Question: How did the MIC (Escherichia coli W3110) turn out when `CC[C@H](C)[C@H](N)C(=O)N[C@@H](CC(C)C)C(=O)N[C@@H](Cc1c[nH]c2ccccc12)C(=O)N[C@@H](C)C(=O)N[C@@H](CS)C(=O)N[C@@H](Cc1c[nH]c2ccccc12)C(=O)NCC(=O)N[C@@H](CC(C)C)C(=O)N[C@@H](CCCCN)C(=O)N[C@@H](CC(C)C)C(=O)N[C@@H](CC(C)C)C(=O)N[C@@H](CCCCN)C(=O)N[C@@H](Cc1ccc(O)cc1)C(=O)N[C@@H](CCCCN)C(=O)N[C@@H](CCCCN)C(=O)N[C@H](C(=O)N[C@@H](Cc1ccc(O)cc1)C(=O)O)[C@@H](C)CC` [ILWACWGLKLLKYKKIY] was run?
Answer: 16 µM (≈ 34.2 µg/mL)

Question: And the MIC [15]?
Answer: ≥ 128 µM

Question: What does the source list for `C[C@H](NC(=O)[C@H](C)NC(=O)[C@H](CCCCN)NC(=O)[C@H](Cc1ccccc1)NC(=O)[C@H](C)NC(=O)[C@H](CCCCN)NC(=O)[C@H](C)NC(=O)[C@H](Cc1c[nH]c2ccccc12)NC(=O)[C@H](C)NC(=O)[C@H](CCCCN)NC(=O)[C@H](C)NC(=O)[C@H](Cc1ccccc1)NC(=O)[C@H](C)NC(=O)[C@H](CCCCN)NC(=O)[C@H](C)NC(=O)[C@H](CCCCN)NC(=O)[C@@H](N)CCCCN)C(N)=O` [KKAKAFAKAWAKAFKAA]?
Answer: MIC [16]: ≥ 50 µM; MIC [17]: ≥ 50 µM; MIC (Escherichia coli K-12): 12.5 µM (≈ 22.9 µg/mL); MIC [18]: 25 µM (≈ 45.9 µg/mL)

Question: Which results are given for `CC(C)C[C@H](NC(=O)[C@H](C)NC(=O)[C@H](CCCCN)NC(=O)[C@H](Cc1ccccc1)NC(=O)[C@H](CC(C)C)NC(=O)[C@H](CCCCN)NC(=O)[C@H](C)NC(=O)[C@H](Cc1c[nH]c2ccccc12)NC(=O)[C@H](CC(C)C)NC(=O)[C@H](CCCCN)NC(=O)[C@H](CC(C)C)NC(=O)[C@H](Cc1ccccc1)NC(=O)[C@H](C)NC(=O)[C@H](C)NC(=O)[C@H](CCCCN)NC(=O)[C@H](CCCCN)NC(=O)[C@@H](N)CCCCN)C(N)=O` [KKKAAFLKLWAKLFKAL]?
Answer: MIC [16]: 3.1 µM (≈ 6.21 µg/mL); MIC [17]: 6.3 µM (≈ 12.6 µg/mL); MIC (Escherichia coli K-12): 3.1 µM (≈ 6.21 µg/mL); MIC [18]: 3.1 µM (≈ 6.21 µg/mL)

Question: With `CC(C)C[C@H](NC(=O)[C@H](CCCCN)NC(=O)[C@H](Cc1ccccc1)NC(=O)[C@H](CC(C)C)NC(=O)[C@H](CC(C)C)NC(=O)[C@H](CCCCN)NC(=O)[C@@H](N)CCCCN)C(=O)N[C@@H](CCCCN)C(=O)N[C@@H](Cc1ccccc1)C(=O)N[C@@H](CCCCN)C(N)=O` [KKLLFKLKFK] as the compound, how does the MIC [19] read?
Answer: 2.41 µM (≈ 3.12 µg/mL)

Question: And the MIC [20]?
Answer: 9.67 µM (≈ 12.5 µg/mL)

Question: And the MIC [21]?
Answer: 2.41 µM (≈ 3.12 µg/mL)

Question: And the MIC (Staphylococcus aureus)?
Answer: 38.7 µM (≈ 50 µg/mL)

Question: What about the MIC [22] of the same compound?
Answer: ≥ 77.4 µM

Question: And the MIC [23]?
Answer: 2.41 µM (≈ 3.12 µg/mL)

Question: And the MIC [24]?
Answer: 1.21 µM (≈ 1.56 µg/mL)

Question: With `CC(C)C[C@H](NC(=O)[C@H](CCCCN)NC(=O)[C@H](Cc1ccccc1)NC(=O)[C@H](CC(C)C)NC(=O)[C@@H](NC(=O)[C@H](CCCCN)NC(=O)[C@@H](N)CCCCN)C(C)C)C(=O)N[C@@H](CCCCN)C(=O)N[C@@H](Cc1ccccc1)C(=O)N[C@@H](CCCCN)C(N)=O` [KKVLFKLKFK] as the compound, how does the MIC [19] read?
Answer: 2.44 µM (≈ 3.12 µg/mL)

Question: What about the MIC [20] of the same compound?
Answer: 9.78 µM (≈ 12.5 µg/mL)

Question: What about the MIC [21] of the same compound?
Answer: 2.44 µM (≈ 3.12 µg/mL)

Question: What about the MIC (Staphylococcus aureus) of the same compound?
Answer: 19.6 µM (≈ 25 µg/mL)

Question: And the MIC [22]?
Answer: ≥ 78.2 µM

Question: What about the MIC [23] of the same compound?
Answer: 2.44 µM (≈ 3.12 µg/mL)

Question: And the MIC [24]?
Answer: 1.22 µM (≈ 1.56 µg/mL)

Question: Which MIC [10] does the source give for `CC[C@H](C)[C@H](NC(=O)[C@H](C)NC(=O)[C@H](CCCCN)NC(=O)[C@@H](NC(=O)[C@H](CC(C)C)NC(=O)[C@H](CCCCN)NC(=O)[C@H](CCCCN)NC(=O)[C@@H](NC(=O)CNC(=O)[C@H](C)NC(=O)[C@H](Cc1ccccc1)NC(=O)[C@H](Cc1ccc(O)cc1)NC(=O)[C@@H]1CCCN1C(=O)[C@H](CC(=O)O)NC(=O)[C@@H](N)Cc1c[nH]c2ccccc12)C(C)C)[C@@H](C)O)C(=O)N[C@@H](CC(C)C)C(=O)N[C@@H](C)C(=O)N[C@H](C(=O)N[C@@H](CCCN=C(N)N)C(=O)N[C@@H](C)C(N)=O)C(C)C` [WDPYFAGVKKLTKAILAVRA] here?
Answer: ≥ 50 µM

Question: And the MIC [25]?
Answer: ≥ 50 µM

Question: Which MIC (Escherichia coli W3110) does the source give for `CC[C@H](C)[C@H](NC(=O)[C@H](CCCCN)NC(=O)[C@H](CCCCN)NC(=O)[C@H](Cc1ccc(O)cc1)NC(=O)[C@H](CCCCN)NC(=O)[C@H](CC(C)C)NC(=O)[C@H](CC(C)C)NC(=O)[C@H](CCCCN)NC(=O)[C@H](CC(C)C)NC(=O)CNC(=O)[C@H](Cc1c[nH]c2ccccc12)NC(=O)[C@H](CCCCN)NC(=O)[C@H](C)NC(=O)[C@H](Cc1c[nH]c2ccccc12)NC(=O)[C@H](CCCN=C(N)N)NC(=O)[C@@H](N)Cc1c[nH]c2ccccc12)C(=O)N[C@@H](Cc1ccc(O)cc1)C(=O)O` [WRWAKWGLKLLKYKKIY] here?
Answer: 1 µM (≈ 2.28 µg/mL)

Question: What about the MIC [15] of the same compound?
Answer: 2 µM (≈ 4.56 µg/mL)
